# Assay results as given in US20100286406A1, “1,3- DIALKYLBENZIMIDAZOLE HALOGENIDES EXHIBITING REGENERATIVE, ANTI-INFLAMMATORY, AND ANTIMICROBIAL ACTIVITY” (priority 2007, published 2010).
# Tested on: burn caused by light radiation
# Experiment: Light radiation burn model, epithelization of burn wounds (regenerative activity)
# Assay type: in vivo
# Source text: The regenerative activity of the claimed compounds was studied on a model of a burn caused by light radiation on a specialized apparatus. […] Unless this medication is applied to a burn, a keloidal scar is produced on the burn area and no skin appendages are formed.
structure (smiles),measurement,setting,value
"CC(C)(CO)C(O)C(=O)NCCCO (centres unmarked) [Panthenol, 2,4-dioxy-N-(3-oxypropyl)-3,3-dimethylbutyramide]",Percentage of fully epithelized burn wounds,25th day of observations,55%
same,Percentage of fully epithelized burn wounds,30th day of observations,85%
